# Like-named read-outs stand apart in the source and are kept apart here.
# Assays:
# proliferating IH [1] = details: topical 1% ointments; cited from earlier work
# [2] = tested on: proliferating hemangioma cells; experiment: Experiment 7: different ACEi and beta blockers on one primary cell line, MTT; assay type: cell-based, human; details: for Results Summary: 72 hours, one cell line; for inhibition at 1 µM / inhibition at 10 µM: Homo sapiens, 72 h, read-out: Inhibition vs. Cells + Adjuvant at 72 Hours; for inhibition of proliferating hemangioma cells: 1 μM and 10 μM
# Procedure: (§1) An in vitro cell culture model of infantile hemangioma was developed to assess the impact of renin-angiotensin system inhibitors on cellular proliferation. A primary cell line of proliferating infantile hemangioma cells, including haemangioma stem cells, was derived from a tissue biopsy obtained from patients during the proliferating phase of the disease. The primary cell lines are cultured in 25 cm^2 flasks using standard culture media and conditions. The cultured cells are used to seed 96-well plates with a seed cell concentration of 2500 or 5000 cells per well, with additional culture media (200 μL). All studies are performed in triplicate.
# The plates are incubated overnight to allow cell adherence to the wells. The wells are photographed to confirm cell adherence and confluency. The appropriate drug(s) to be examined are subsequently added to the wells. […] The media is aspirated from each well and stored frozen for possible future analyses. Media is added to the wells and an MTT determination is undertaken according to standard protocols.
# (§2) From the triplicate incubations of each drug concentration at each time, as well as for all controls, the mean±standard deviation is calculated. The net survival (optical density value) is calculated by subtracting the appropriate blank mean value from each cell culture. From the MTT data, the percentage of survival of cells in the presence of each concentration of drug after each time of culturing is determined.
# Briefly, cells were seeded in 96-well plates at concentrations of 2500 cells/well in triplicate for each drug and drug combination. […] All plates were performed in triplicate. Beta blockers used in the study were (±)-propranolol, R-propranolol, S-propranolol, timolol, and betaxalol.
# proliferating IH [3] = details: cited from earlier work
# IH = details: oral; 30 patients with IH; cited from earlier work
# [4] = tested on: flat or minimally raised IH lesions; details: cited from earlier work
# [5] = tested on: proliferating hemangioma cells; experiment: Example 5: R- and S-beta blockers alone and with cilazapril, MTT; assay type: cell-based, human
# Procedure: An in vitro cell culture model of infantile hemangioma was developed to assess the impact of renin-angiotensin system inhibitors on cellular proliferation. A primary cell line of proliferating infantile hemangioma cells, including haemangioma stem cells, was derived from a tissue biopsy obtained from patients during the proliferating phase of the disease. The primary cell lines are cultured in 25 cm^2 flasks using standard culture media and conditions. The cultured cells are used to seed 96-well plates with a seed cell concentration of 2500 or 5000 cells per well, with additional culture media (200 μL). All studies are performed in triplicate. The plates are incubated overnight to allow cell adherence to the wells. The wells are photographed to confirm cell adherence and confluency. The appropriate drug(s) to be examined are subsequently added to the wells. After 24 hours, one set of plates (experimental and blank) is stopped. The media is aspirated from each well and stored frozen for possible future analyses. Media is added to the wells and an MTT determination is undertaken according to standard protocols. This is repeated at 48 and 72 hours. From the triplicate incubations of each drug concentration at each time, as well as for all controls, the mean±standard deviation is calculated. The net survival (optical density value) is calculated by subtracting the appropriate blank mean value from each cell culture. From the MTT data, the percentage of survival of cells in the presence of each concentration of drug after each time of culturing is determined. The experimental protocol was performed as per Example 1. Briefly, cells were seeded in 96-well plates at concentrations of 2500 cells/well in triplicate for each drug and drug combination. Drug(s) were added to each well 24 hours after seeding and re-dosed every 24 hours. Cell viability was assessed by MTT assay after 24, 48, and 72 hours. All plates were performed in triplicate. […] Timolol and propranolol were used as model beta blockers and cilazapril as a model ACE inhibitor.
# [6] = tested on: proliferating hemangioma cell lines (n=9); experiment: Example 6: single agents and combinations on nine primary cell lines, MTT, CompuSyn combination index; assay type: cell-based, human; details: 1 to 10 μM; 72 hours; n=9
# Procedure: as §1
# The plates are incubated overnight to allow cell adherence to the wells. The wells are photographed to confirm cell adherence and confluency. The appropriate drug(s) to be examined are subsequently added to the wells. After 24 hours, one set of plates (experimental and blank) is stopped. The media is aspirated from each well and stored frozen for possible future analyses. Media is added to the wells and an MTT determination is undertaken according to standard protocols. This is repeated at 48 and 72 hours.
# as §2
# A study was undertaken using combinations of ACE inhibitors, beta blockers and angiotensin II type 2 receptor blockers to inhibit proliferating hemangioma cells. […] Patient histories pertaining to each cell line is described in Table 5.
# The experimental protocol was performed as per Example 1. Briefly, cells were seeded in 96-well plates at concentrations of 2500 cells/well in triplicate for each drug and drug combination. Drug(s) were added to each well 24 hours after seeding and re-dosed every 24 hours. Cell viability was assessed by MTT assay after 24, 48, and 72 hours. All plates were performed in triplicate. Drugs were assessed alone and in combination, as described in Table 6. Propranolol was used as a model beta blocker, cilazapril as a model ACE inhibitor, and SMM02 (L-159686) as a model AT2Ri. Synergy was measured using the CompuSyn open-source software protocol for quantifying synergism and antagonism that uses the median-effect equation and mass-action laws to generate a combination index (www.compusyn.com). Synergism, additive effects and antagonism are defined as a CI<1, CI=1, and CI>1, respectively.
# brush border ACE = molecular target: T1, brush border ACE (Homo sapiens, UniProt P12821); details: cited from earlier work
# T1 construct: brush border ACE; from tissue
# [7] = cited from earlier work; for Half life: in vivo; for Half life: short or long acting: in words
# [8] = cited from earlier work
# [9] = cited from earlier work; remark: listed apart in the source
# rabbit lung ACE = molecular target: T2, rabbit lung ACE (Oryctolagus cuniculus, UniProt P12822); details: vs rabbit lung ACE, cited from earlier work
# T2 construct: rabbit lung ACE; from tissue; host or cells: rabbit lung
# T2 sequence (P12822 34-1310): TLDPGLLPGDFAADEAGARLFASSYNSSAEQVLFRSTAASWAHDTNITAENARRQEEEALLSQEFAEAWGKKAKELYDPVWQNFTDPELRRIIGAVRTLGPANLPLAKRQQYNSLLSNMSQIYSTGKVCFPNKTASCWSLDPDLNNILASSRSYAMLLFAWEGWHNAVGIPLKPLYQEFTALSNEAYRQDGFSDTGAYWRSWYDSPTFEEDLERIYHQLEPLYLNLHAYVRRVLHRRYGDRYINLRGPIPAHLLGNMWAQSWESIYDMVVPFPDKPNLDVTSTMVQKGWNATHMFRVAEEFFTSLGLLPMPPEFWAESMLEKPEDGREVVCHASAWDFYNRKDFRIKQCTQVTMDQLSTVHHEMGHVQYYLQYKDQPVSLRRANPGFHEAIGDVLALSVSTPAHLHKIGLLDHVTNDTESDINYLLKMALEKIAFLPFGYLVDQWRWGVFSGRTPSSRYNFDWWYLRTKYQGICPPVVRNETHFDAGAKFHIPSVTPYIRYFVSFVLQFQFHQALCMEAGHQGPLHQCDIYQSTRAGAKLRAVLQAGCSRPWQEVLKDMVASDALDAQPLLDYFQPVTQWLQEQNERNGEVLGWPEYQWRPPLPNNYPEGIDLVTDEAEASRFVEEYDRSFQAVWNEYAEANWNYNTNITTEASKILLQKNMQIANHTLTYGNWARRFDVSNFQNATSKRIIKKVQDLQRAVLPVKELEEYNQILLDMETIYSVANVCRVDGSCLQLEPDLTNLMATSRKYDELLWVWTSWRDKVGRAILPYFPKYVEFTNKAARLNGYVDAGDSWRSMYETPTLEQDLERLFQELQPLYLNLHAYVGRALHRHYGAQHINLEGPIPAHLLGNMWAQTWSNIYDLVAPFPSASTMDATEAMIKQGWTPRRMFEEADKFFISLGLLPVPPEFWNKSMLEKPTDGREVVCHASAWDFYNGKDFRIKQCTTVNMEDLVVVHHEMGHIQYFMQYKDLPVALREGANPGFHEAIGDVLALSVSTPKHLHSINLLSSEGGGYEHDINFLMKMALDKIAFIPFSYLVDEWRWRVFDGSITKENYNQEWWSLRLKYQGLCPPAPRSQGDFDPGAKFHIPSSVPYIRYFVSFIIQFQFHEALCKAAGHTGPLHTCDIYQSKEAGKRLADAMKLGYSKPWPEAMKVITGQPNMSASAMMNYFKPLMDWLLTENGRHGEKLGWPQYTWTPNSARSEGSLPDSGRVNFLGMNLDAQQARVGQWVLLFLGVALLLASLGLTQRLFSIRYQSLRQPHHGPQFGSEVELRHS
# [10] = cited from earlier work; remark: listed apart in the source
# [11] = Franz-diffusion cell permeation through skin-model membranes; details: 120 hours
# Source text: Firstly, a custom-built Franz-diffusion cell (FIG. 34 A) was constructed in-house, consisting of a donor and receiver chamber, and fitted with a water-jacket to enable the temperature to be controlled to mimic physiological conditions. […] This model system was used as a screening tool to increase the success of subsequent permeation studies performed on excised animal skin.
# The system was validated by investigating the permeation of a water-soluble fluorescent dye, carboxyfluorescein, which has poor skin penetration properties. […] As a comparison, carboxyfluorescein was encapsulated into deformable liposomes with a phospholipid membrane composition of soy phosphatidylcholine (Phospholipon® 90G) and polysorbate 80 in an 80:20 mol % ratio. […]
# The carboxyfluorescein emulgel (2 mL) was placed in the receiver chamber of the Franz-diffusion cell fitted with a Strat-M® membrane, and permeation of fluorescein across the membrane was monitored over time and quantified by fluoresce spectroscopy. […]
# The permeation of propranolol through skin-model membranes in vitro was assessed. A 2-mL volume of the appropriate vehicle (cream vs. emulsion gel) was placed in the donor chamber of the Franz-diffusion cell, and the concentration of propranolol in the receiver chamber was determined by UV-Vis spectroscopy at frequent time intervals over 60 hours.
# superficial IH = details: cited from earlier work
# T1 sequence (P12821 30-1306): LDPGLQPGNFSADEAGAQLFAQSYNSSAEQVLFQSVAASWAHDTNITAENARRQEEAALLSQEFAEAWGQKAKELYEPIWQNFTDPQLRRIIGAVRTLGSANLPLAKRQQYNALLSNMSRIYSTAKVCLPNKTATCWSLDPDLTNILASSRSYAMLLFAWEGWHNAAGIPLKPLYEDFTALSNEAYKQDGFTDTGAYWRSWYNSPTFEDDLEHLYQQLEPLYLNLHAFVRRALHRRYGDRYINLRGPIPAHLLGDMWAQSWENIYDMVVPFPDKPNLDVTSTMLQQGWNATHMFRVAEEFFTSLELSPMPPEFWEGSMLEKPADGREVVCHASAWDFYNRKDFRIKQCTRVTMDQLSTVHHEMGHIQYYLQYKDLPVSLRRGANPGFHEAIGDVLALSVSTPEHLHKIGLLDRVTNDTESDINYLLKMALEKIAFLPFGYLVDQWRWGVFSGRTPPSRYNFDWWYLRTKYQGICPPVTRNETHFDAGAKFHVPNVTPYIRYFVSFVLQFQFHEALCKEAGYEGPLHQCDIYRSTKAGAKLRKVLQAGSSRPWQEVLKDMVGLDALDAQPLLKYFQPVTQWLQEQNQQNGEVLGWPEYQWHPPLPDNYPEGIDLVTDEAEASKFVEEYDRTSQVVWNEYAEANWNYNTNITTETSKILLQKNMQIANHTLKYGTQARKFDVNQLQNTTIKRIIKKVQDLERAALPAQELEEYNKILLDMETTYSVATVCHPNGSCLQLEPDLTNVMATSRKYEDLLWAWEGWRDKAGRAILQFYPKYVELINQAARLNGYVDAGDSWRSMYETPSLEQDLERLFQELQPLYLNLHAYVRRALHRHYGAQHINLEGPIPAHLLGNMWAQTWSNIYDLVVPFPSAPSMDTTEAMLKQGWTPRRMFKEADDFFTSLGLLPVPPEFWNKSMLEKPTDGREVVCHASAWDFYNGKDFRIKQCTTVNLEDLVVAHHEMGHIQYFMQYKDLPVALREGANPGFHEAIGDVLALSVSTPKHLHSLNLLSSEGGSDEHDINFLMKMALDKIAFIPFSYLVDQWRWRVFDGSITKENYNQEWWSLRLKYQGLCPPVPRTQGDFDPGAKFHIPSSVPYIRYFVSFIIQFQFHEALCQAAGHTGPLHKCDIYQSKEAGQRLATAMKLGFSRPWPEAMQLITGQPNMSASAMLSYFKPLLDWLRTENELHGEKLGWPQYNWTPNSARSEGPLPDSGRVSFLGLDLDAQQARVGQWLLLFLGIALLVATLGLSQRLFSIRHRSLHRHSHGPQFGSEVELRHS
compound,measurement,setting,value
"CC(C)NCC(O)COc1cccc2ccccc12 (racemic) [(±) Propranolol, Propranolol]",good response,proliferating IH [1],57-59%
same,good to modest response rates,proliferating IH [1],75-90%
same,modest response,proliferating IH [1],26-33%
same,no response,proliferating IH [1],10-15%
same,Results Summary,[2],Responder
same,inhibition at 1 µM,[2]; 1 μM,< 0%
same,inhibition at 10 µM,[2]; 10 μM,47.5%
same,patients treated showing an improvement,"proliferating IH [3]; oral low dose, within 5 weeks",approximately 88%
same,patients successfully treated,"proliferating IH [3]; oral, overall",approximately 60%
same,clinical improvement versus captopril,IH,significantly better and faster
CCC(=O)O[C@]1(C(=O)CCl)[C@@H](C)C[C@H]2[C@@H]3CCC4=CC(=O)C=C[C@]4(C)[C@@]3(F)[C@@H](O)C[C@@]21C [clobetasol propionate],good response,"[4]; topical 0.05%, 4 to 21 weeks",35%
same,no response,"[4]; topical 0.05%, 4 to 21 weeks",27%
same,partial response,"[4]; topical 0.05%, 4 to 21 weeks",38%
same,adverse effects,[4]; topical ultrapotent corticosteroid,"localised atrophy, hypopigmentation, hypertrichosis and infection"
"CC(C)NC[C@@H](O)COc1cccc2ccccc12 [R(+) Propranolol, R-propranolol]",individual isomers compared with the racemic mixture,[5]; alone,as effective alone as the racemic mixture
same,"attenuating hemangioma cell proliferation, propranolol vs timolol enantiomers",[5]; particularly at 1-5 μM,superior to R- and S-timolol
same,Estimated Optimal Dosage Range,[2],1 to 10 µM
same,Inhibition vs. Cells + Adjuvant at 72 Hours,[2]; 1 μM,1 μM - No - 1.59%
same,Inhibition vs. Cells + Adjuvant at 72 Hours,[2]; 10 μM,10 μM - Response - 50.35%
same,Results Summary,[2],Responder
same,dose-response across all cell lines,[6],typical dose-response
CCOC(=O)[C@H](CCc1ccccc1)N[C@@H](C)C(=O)N1[C@H](C(=O)O)C[C@@H]2CCC[C@@H]21 [Ramipril],Complete ACE inhibition lasting,brush border ACE; after single 10 μM dose,inhibition lasting 15 days
same,IC50,brush border ACE; vs brush border ACE,5 nM
same,Half life,[7],2 to 4 h (Ramipril)
same,Half life: short or long acting,[7],Long acting
same,inhibition of proliferating hemangioma cells,[2],good and similar level of inhibition
same,Results Summary,[2],Responder
same,inhibition at 1 µM,[2]; 1 μM,< 0%
same,inhibition at 10 µM,[2]; 10 μM,68.1%
same,Solubility,[8],3.5 mg/L
same,pKa,[9],3.75
same,pKa,[9]; second value,5.2
Lisinopril,Half life,[7],12.6 h
same,Half life: short or long acting,[7],Long acting
same,Estimated Optimal Dosage Range,[2],1 to 10 µM
same,Inhibition vs. Cells + Adjuvant at 72 Hours,[2]; 1 μM,1 μM - <0%
same,inhibition of proliferating hemangioma cells,[2],no effect
same,Inhibition vs. Cells + Adjuvant at 72 Hours,[2]; 10 μM,10 μM -1.67%
same,Results Summary,[2],Non-
same,IC50,rabbit lung ACE; unit inferred,3.3 nM
same,Solubility,[8],97000 mg/L
same,pKa,[9],3.2
same,pKa,[9]; second value,10.2
same,Log P,[10]; Table 1,−1.01
same,log P,[10],−1.01
carboxyfluorescein,permeation of carboxyfluorescein through the skin-model membrane,[11],No permeation
same,log P,[10],2.9
O=C(O)[C@H](CCc1ccccc1)N[C@H]1CCCN2CCC[C@@H](C(=O)O)N2C1=O [cilazaprilat],Half life,[7],9 h (cilazaprilat)
same,IC50,rabbit lung ACE,1.93 nM
CCOC(=O)[C@H](CCc1ccccc1)N[C@H]1CCc2ccccc2N(CC(=O)O)C1=O [Benazepril],Half life: short or long acting,[7],Long acting
same,IC50,rabbit lung ACE,425 nM
same,Solubility,[8]; pH 7,1.76 mg/L (pH 7)
same,pKa,[9],3.5
same,pKa,[9]; second value,5.4
"CC(C)Cn1cnc2c(N)nc3ccccc3c21 [imiquimod, Imiquimod]",time within which all cases are improved,superficial IH; 5% cream,≤ 4 months
same,side effects,superficial IH; topical,severe local inflammatory reactions leading to disfiguring scars
